# Measured values as given in patent publication US4593090A, “Novel nitrosourea compounds, method for preparing same, and pharmaceutical composition containing same” (Gogo Kimura, priority 1981, dated 1986).
# Where two headings read alike, the source gives them in different places.
# Tests used:
# [1] = Acute toxicity (LD50, Behrens-Karber method); assay type: in vivo, ICR mice; details: ip, mortality during 30 days; for LD50 at 720 h: mouse, in vivo
# Protocol: Test compounds, dissolved or suspended in 0.5% aqueous CMC, were each intraperitoneally administered to ICR mice in a dose of 0.1 ml per 10 g body weight. LD50 (mg/kg) value of each test compound was calculated from the mortality of mice during 30 days by the Behrens-Karber method.
# [2] = tested on: Leukemia L1210; experiment: Activity against Leukemia L1210, intraperitoneal, increase in life span of mice; assay type: in vivo, female mice (BDF1 family); details: for ED (maximum ILS) / ED30: Mus musculus, L1210, ip; for ED (maximum ILS): read-out: O.D. (optimum dosage); for ED30: read-out: ILS30; for Survivors after 60 days / Max. ILS % / Therapeutic ratio TR: ip; for Survivors after 60 days: 6-membered group; for Max. ILS %: 60-day observation, versus control; for Therapeutic ratio TR: O.D./ILS30
# Procedure, shortened: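 Mice (female BDF1, 20–23 g) carrying 1×10^5 ip-implanted L1210 cells were given daily ip or oral doses for 5 days; ILS% came from mean survival over 60 days relative to controls.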
# [3] = tested on: Ehrlich acites carcinoma; experiment: Growth-inhibiting effect against Ehrlich acites carcinoma; assay type: in vivo, male mice; details: 5 days; for response vs control in vivo at 25 mg/kg / response vs control in vivo at 100 mg/kg: Mus musculus, Ehrlich, 120 h
# Procedure, shortened: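 Activity graded from T/C% of total packed ascites cell volume on day 7 (treated vs untreated): - 100-66, + 65-41, ++ 40-11, +++ 10-0. Groups of 6 male mice bore 1×10^7 i.p.-implanted cells and received compound (1% Nikkol HCO-60) i.p. daily for 5 days from 24 hrs after implantation.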
# [4] = tested on: Leukemia L1210; experiment: Activity against Leukemia L1210, oral, increase in life span of mice; assay type: in vivo, female mice (BDF1 family); details: for ED (maximum ILS) / ED30: Mus musculus, L1210; for ED (maximum ILS): read-out: O.D. (optimum dosage); for ED30: read-out: ILS30; for Survivors after 60 days / Max. ILS % / Therapeutic ratio TR: oral; for Survivors after 60 days: 6-membered group; for Max. ILS %: 60-day observation, versus control; for Therapeutic ratio TR: O.D./ILS30
# Protocol: Tests were conducted in accordance with the method for measuring antitumor activity of National Cancer Center Tokyo (A, Hoshi et al, Farumashia 9 464 (1973)). Test compounds were each intraperitoneally (referred to as ip) or orally (referred to as op) administered once a day for 5 successive days to a 6-membered group of femal mice (BDF1 family, each weighing 20 to 23 g) 24 hours after 1×10^5 cells of Leukemia L1210 have been implantated into the abdominal cavities of the mice, and the effect was evaluated by comparing the survival days of treated groups with those of an untreated group of mice (control group) in 60-day observation. An increase percentage of life span (ILS%) was calculated from said average survival days compared with those of the control group. Further, therapeutic ratio (O.D./ILD30, referred to as T.R.) of each tested compound was calculated from the daily dosage of the compound necessary to increase said average survival days by 30% as compared with the control group (this dosage is referred to as ILS 30) and the daily dosage giving a maximum increase of life span to mice implantated with L1210 cells, namely an optimum dosage (referred to as O.D.). The results of five successive days intraperitoneal administrations of test compounds were shown in Tables I to III, and those of five successive oral administrations in Table IV.
# [5] = ip once a day for 5 successive days, daily dosage giving maximum increase of life span
# [6] = ip once a day for 5 successive days, daily dosage increasing average survival days by 30%
# [7] = 25 mg/kg/day ip, read-out: Activity
# [8] = 25 mg/kg/day ip, read-out: T/C %
# [9] = 100 mg/kg/day ip, read-out: Activity
# [10] = 100 mg/kg/day ip, read-out: T/C %
# [11] = oral once a day for 5 successive days, daily dosage giving maximum increase of life span
# [12] = oral once a day for 5 successive days, daily dosage increasing average survival days by 30%
Compound,LD50 at 720 h [1],"ED (maximum ILS) [2, 5]","ED30 [2, 6]",Survivors after 60 days [2],Max. ILS % [2],Therapeutic ratio TR [2],"response vs control in vivo at 25 mg/kg [3, 7]","response vs control in vivo at 25 mg/kg [3, 8]","response vs control in vivo at 100 mg/kg [3, 9]","response vs control in vivo at 100 mg/kg [3, 10]","ED (maximum ILS) [4, 11]","ED30 [4, 12]",Survivors after 60 days [4],Max. ILS % [4],Therapeutic ratio TR [4],other results
"COCCN(C[C@H]1O[C@H](OC2CCCCC2)[C@H](O)[C@@H](O)[C@H]1O)C(=O)N(CCCl)N=O [Compound 101, 3-(2-methoxyethyl)-3-(cyclohexyl α-D-galactopyranose-6-yl)-1-(2-chloroethyl)-1-nitrosourea]",660 mg/kg,200 mg/kg,3.66 mg/kg,6/6,> 700%,54.6,0 to 10%,0%,0 to 10%,0%,250 mg/kg,11.2 mg/kg,4/6,> 460%,22.3,–
"COCC(C)N(C[C@H]1O[C@H](OC2CCCCC2)[C@H](O)[C@@H](O)[C@@H]1O)C(=O)N(CCCl)N=O (stereo partly drawn) [Compound 42, 3-(1-methyl-2-methoxyethyl)-3-(cyclohexyl α-D-glucopyranose-6-yl)-1-(2-chloroethyl)-1-nitrosourea]",595 mg/kg,180 mg/kg,2.7 mg/kg,6/6,> 700%,66.6,0 to 10%,0%,0 to 10%,0%,230 mg/kg,7.88 mg/kg,6/6,> 700%,29.2,–
"CC(C)CN(C[C@H]1O[C@H](OCC2CCCO2)[C@@H](O)[C@@H](O)[C@@H]1O)C(=O)N(CCCl)N=O (stereo partly drawn) [Compound 136, 3-(isobuty)-3-(tetrahydrofurfuryl α-D-mannopyranose-6-yl)-1-(2-chloroethyl)-1-nitrosourea]",600 mg/kg,200 mg/kg,2.94 mg/kg,6/6,> 700%,68.0,0 to 10%,0%,0 to 10%,0%,240 mg/kg,10.1 mg/kg,5/6,> 625%,23.8,–
"O=NN(CCCl)C(=O)N(C1CCCCC1)C1C(OCC2CCCO2)OC(CO)C(O)C1O [Compound 75, 3-cyclohexyl-3-(tetrahydrofurfuryl α-D-glucopyranose-2-yl)-1-(2-chloroethyl)-1-nitrosourea]",505 mg/kg,160 mg/kg,3.67 mg/kg,5/6,> 625%,43.6,0 to 10%,0%,0 to 10%,0%,200 mg/kg,11.6 mg/kg,4/6,> 450%,17.2,–
"CC(CN1CCOCC1)O[C@@H]1O[C@H](CN(C(=O)N(CCCl)N=O)C(C)(C)C)[C@@H](O)[C@H](O)[C@H]1O (stereo partly drawn) [Compound 200, 3-tert-butyl-3-(1-morpholinoisopropyl β-D-glucopyranose-6-yl)-1-(2-chloroethyl)-1-nitrosourea]",480 mg/kg,150 mg/kg,3.11 mg/kg,6/6,> 700%,48.2,0 to 10%,0%,0 to 10%,0%,190 mg/kg,10.1 mg/kg,4/6,> 460%,18.9,–
"CCOCCO[C@H]1O[C@H](CN(CC(C)C)C(=O)N(CCCl)N=O)[C@H](O)[C@H](O)[C@H]1O [Compound 114, 3-isobutyl-3-(2-ethoxyethyl α-D-galactopyranose-6-yl)-1-(2-chloroethyl)-1-nitrosourea]",580 mg/kg,180 mg/kg,2.86 mg/kg,6/6,> 700%,62.9,0 to 10%,0%,0 to 10%,0%,210 mg/kg,9.05 mg/kg,6/6,> 700%,23.2,–
"CC(C)CN(C[C@H]1O[C@@H](OCC2CCCO2)[C@H](O)[C@@H]1O)C(=O)N(CCCl)N=O (stereo partly drawn) [Compound 170, 3-isobutyl-3-(tetrahydrofurfuryl β-D-ribofuranose-5-yl)-1-(2-chloroethyl)-1-nitrosourea]",505 mg/kg,160 mg/kg,3 mg/kg,5/6,> 620%,53.3,0 to 10%,0%,0 to 10%,0%,190 mg/kg,13.4 mg/kg,4/6,> 440%,14.2,–
"CCCCO[C@H]1O[C@H](CO)[C@H](N(C(=O)N(CCCl)N=O)C(C)COC)[C@H](O)[C@H]1O (stereo partly drawn) [Compound 132, 3-(1-methyl-2-methoxyethyl)-3-(n-butyl α-D-galactopyranose-4-yl)-1-(2-chloroethyl)-1-nitrosourea]",550 mg/kg,160 mg/kg,3.86 mg/kg,4/6,> 420%,41.5,0 to 10%,0%,0 to 10%,0%,200 mg/kg,14 mg/kg,3/6,> 345%,14.3,–
3-tert-butyl-3-(methoxy-2-n-butyl β-D-glucopyranose-6-yl)-1-(2-chloroethyl)-1-nitrosourea [Compound 178],–,–,–,6/6,> 700%,66.5,–,–,–,–,–,–,5/6,> 625%,22.4,"LD50 [1]: 570 mg/kg; O.D. (optimum dosage) [2, 5]: 180 mg/kg; ILS30 [2, 6]: 2.71 mg/kg; Activity ([3]; 25 mg/kg/day ip): +++ (T/C% 10-0); T/C % ([3]; 25 mg/kg/day ip): 0%; Activity ([3]; 100 mg/kg/day ip): +++ (T/C% 10-0); T/C % ([3]; 100 mg/kg/day ip): 0%; O.D. (optimum dosage) [4, 11]: 210 mg/kg; ILS30 [4, 12]: 9.38 mg/kg"
